According to patent publication US20230341403A1, “METHODS AND KITS FOR THE DIAGNOSIS OF LUNG CANCER” (priority 2020, published 2023):

System: A549 cells transfected with the LARGE portion of the isoform 4 (PC4-5)
Experiment: Cell proliferation by CFSE and flow cytometry in transfected A549 cells
Type: cell-based, human
Conditions: FIG. 6B; for tumour growth / cancer proliferation in the cells transfected with the "large" subunit of the isoform 4: concentration not stated at this place
Procedure: Transfections. A549 cells, lung adenocarcinoma, were transfected by means of marketable kits for 72 hours in transient way with the plasmid vectors: 1. PC4-1, miming the whole isoform 1 of the caspase-4; 2. PC4-2, miming CARD+LARGE subunit; 3. PC4-3, miming LARGE+SMALL subunit of the isoform 1; 4. PC4-4, miming LARGE subunit of the isoform 1 and 5. PC4-5, miming LARGE subunit of the isoform 4 of the caspase-4. The cell proliferation was evaluated through method of CFSE (1 μM), analysed by means of flow cytometry. In some experiments, the transfected cells marked with CFSE, were subjected to treatment with two leader compounds (compound 5: COMP-5; compound 6: COMP-6).
In order to understand the role of the isoform 4 in the cancer growth, the A549 cells, cells of lung adenocarcinoma, were transfected with specific vectors, containing specific portions of the isoform 1 and isoform 4 as described in FIG. 6A. It was observed that the isoform 4 and 1 are both capable of promoting cancer proliferation when the LARGE subunit is expressed with respect to the other considered structures (FIG. 6A). At last, the cells transfected with the large subunit of the isoform 1 (PC4-4) and 4 (PC4-5) were treated with leading compound with the purpose of verifying a cancer growth decrease.

What does the source list for Ac-VVDC-NH2 [compound 6]?
cancer growth of the A549 cells transfected with the LARGE portion of the isoform 4 (compound at 10 nM, A549 transfected with PC4-5, CFSE flow cytometry): capable of reducing significantly the cancer growth; tumour growth / cancer proliferation in the cells transfected with the "large" subunit of the isoform 4: can be inhibited; tumour growth / cancer proliferation in the cells transfected with the "large" subunit of the isoform 4 (listed as Ac-VVDC-NH2): significant decrease in the tumour growth
